This is an account of results in patent publication US5013549A, “Production, isolation, and identification of novel antifungal compounds” (priority 1990, dated 1991).

In brackets after ≈: the same amount, converted by molar mass. Entries after “also recorded” stand apart in the source; their conditions may differ. Read-outs that look alike come from different tables or passages of the source.

The test system of data set [1] is murine tumors. The settings on record: more active than adriamycin; cited from earlier work.
The subject of data set [2] is fungi. Conditions: known related compounds; cited from earlier work.
The conditions of data set [3]: cited from earlier work.
Data set [4] relates to S. aureus (multiple drug resistant). Description: Minimum inhibitory concentration, S. aureus (multiple drug resistant). Type of data set: cell-based, Staphylococcus aureus. The settings on record: bacterial strain. As to the method:
(§1) Known amounts of the purified substance were dissolved in DMSO and serial dilutions prepared in the same solvent. A 20 ul volume of each dilution was placed on the surface of Emmon's agar in petri-dishes seeded with various test strains of pathogenic and saprophytic fungi. The antibacterial activity was monitored using Muller-Hilton agar. The minimum inhibitory concentration (MIC) was determined by incorporating known amount of the DMSO dissolved purified substance into Emmon's liquid medium (same as stated earlier but devoid of agar) contained in test tubes. The tubes were inoculated with ca 2×10^3 CFU of the test organisms. The inoculated tubes were incubated at 26° C. and the results recorded after two to 5 days depending upon the growth pattern of the test organisms (certain fungi grow faster than others). Tubes inoculated in an identical manner but devoid of the active substance served as controls.

Data set [5] in a line: Stability in 2N HCl. Type of data set: physicochemical.
Data set [6] deals with Cryptococcus neoformans-N-2. Description: Minimum inhibitory concentration, Cryptococcus neoformans-N-2. The settings on record: N = encapsulated, mucoid strain with neurotropic tendencies, 26° C., 2 to 5 days. The format is cell-based. As to the method: as §1
Data set [7] deals with A. niger. Description: Minimum inhibitory concentration, A. niger. The format is cell-based. The settings on record: Aspergillus niger; 26° C., 2 to 5 days, Emmon's liquid medium; fungus. On the procedure: as §1
The subject of data set [8] is C. neoformans serotype-C. Description: Minimum inhibitory concentration, C. neoformans serotype-C. The format is cell-based. The settings on record: Cryptococcus neoformans. On the procedure: as §1
In data set [9] the test system is Escherichia coli. The data set is described as follows: Minimum inhibitory concentration, Escherichia coli. The format is cell-based. Conditions: bacterial strain. On the procedure: as §1
The subject of data set [10] is Candida albicans. Description: Minimum inhibitory concentration, Candida albicans. Type of data set: cell-based. Conditions: 26° C., 2 to 5 days, Emmon's liquid medium, fungus. On the procedure:
as §1

The subject of data set [11] is C. neoformans- G-3. The data set is described as follows: Minimum inhibitory concentration, C. neoformans- G-3. Conditions: Cryptococcus neoformans. The format is cell-based. As to the method: as §1
Data set [12] relates to Penicillium species. Description: Minimum inhibitory concentration, Penicillium species. Conditions: 26° C., 2 to 5 days, Emmon's liquid medium, fungus. The format is cell-based. On the procedure:
as §1

The subject of data set [13] is Rhodotorula rubra. Description: Minimum inhibitory concentration, Rhodotorula rubra. Type of data set: cell-based. On the procedure:
as §1

The subject of data set [14] is Cladosporium species. Description: Minimum inhibitory concentration, Cladosporium species. The format is cell-based. Conditions: 26° C., 2 to 5 days, Emmon's liquid medium, fungus. As to the method:
as §1

Data set [15] relates to S. aureus ATCC 25923. Description: Minimum inhibitory concentration, S. aureus ATCC 25923. Type of data set: cell-based, Staphylococcus aureus. Conditions: bacterial strain ATCC 25923. On the procedure:
as §1

In data set [16] the test system is Citrobacter species. The data set is described as follows: Minimum inhibitory concentration, Citrobacter species. The format is cell-based. Conditions: bacterial strain. As to the method: as §1
For data set [17], the system named is C.neoformans serotype-D. Description: Minimum inhibitory concentration, C.neoformans serotype-D. Conditions: Cryptococcus neoformans, 26° C., 2 to 5 days. The format is cell-based. On the procedure: as §1
The subject of data set [18] is Aspergillus fumigatus. The data set is described as follows: Minimum inhibitory concentration, Aspergillus fumigatus. The format is cell-based. As to the method: as §1
Data set [19] deals with A. flavus. Description: Minimum inhibitory concentration, A. flavus. Conditions: Aspergillus flavus; 26° C., 2 to 5 days, Emmon's liquid medium; fungus. The format is cell-based. On the procedure: as §1
Data set [20] in a line: Solubility. Type of data set: physicochemical.
Data set [21] concerns R. glutinis. The data set is described as follows: Minimum inhibitory concentration, R. glutinis. The format is cell-based. Conditions: Rhodotorula glutinis. On the procedure: as §1
Data set [22] relates to C. quilliermondii. Description: Minimum inhibitory concentration, C. quilliermondii. Type of data set: cell-based. As to the method:
as §1

Data set [23] concerns Pseudomonas aeruginosa. Description: Minimum inhibitory concentration, Pseudomonas aeruginosa. Type of data set: cell-based. Conditions: bacterial strain. As to the method:
as §1

In data set [24] the test system is Plebsiella pneumoniae. The data set is described as follows: Minimum inhibitory concentration, Plebsiella pneumoniae. The format is cell-based. On the procedure: as §1
Data set [25] deals with C. neoformans- N-3. The data set is described as follows: Minimum inhibitory concentration, C. neoformans- N-3. The format is cell-based. Conditions: Cryptococcus neoformans; N = encapsulated, mucoid strain with neurotropic tendencies; 26° C., 2 to 5 days. On the procedure:
as §1

The test system of data set [26] is Staphylococcus aureus ATCC 29213. Description: Minimum inhibitory concentration, Staphylococcus aureus ATCC 29213. Type of data set: cell-based. The settings on record: bacterial strain ATCC 29213. As to the method: as §1

Usually MIC stands for the lowest concentration that inhibits growth of the organism. A higher MIC goes with a less susceptible organism.

Consider `CCN[C@H]1CO[C@@H](O[C@H]2[C@H](O[C@H]3C#C/C=C\C#C[C@]4(O)CC(=O)C(NC(=O)OC)=C3/C4=C\CSSSC)O[C@H](C)[C@@H](NO[C@H]3C[C@H](O)[C@H](SC(=O)c4c(C)c(I)c(O[C@@H]5O[C@@H](C)[C@H](O)[C@@H](OC)[C@H]5O)c(OC)c4OC)[C@@H](C)O3)[C@@H]2O)C[C@@H]1OC` [Calicheamicin], for which, in [1], the “activity relative to adriamycin against murine tumors” value was “approximately 1000 -fold”.
Regarding `CCC1(O)CC(OC2CC(N(C)C)C(OC3CC(O)C(OC4CCC(=O)C(C)O4)C(C)O3)C(C)O2)c2c(cc3c(c2O)C(=O)c2c(O)ccc(O)c2C3=O)C1C(=O)OC` (stereo not drawn) [cinerubin A], in data set [2], the antifungal properties result is “not significantly antifungal”. Further, the “solubility of known cinerubins” value in data set [3] (in ethanol) and in data set [3] (in methanol) was “soluble” throughout.
In the case of `CC[C@@]1(O)C[C@H](O[C@H]2C[C@H](N(C)C)[C@H](O[C@H]3C[C@@H]4O[C@H]5CC(=O)[C@H](C)O[C@H]5O[C@@H]4[C@H](C)O3)[C@H](C)O2)c2c(cc3c(c2O)C(=O)c2c(O)ccc(O)c2C3=O)[C@H]1C(=O)OC` [cinerubin B], the antifungal properties result in data set [2] was “not significantly antifungal”. The “solubility of known cinerubins” value in data set [3] (in ethanol) and in data set [3] (in methanol) was “soluble” throughout.
In the case of `CCC1(O)CC(OC2CC(N(C)C)C(OC3CC(O)C(OC4CCC(=O)C(C)O4)C(C)O3)C(C)O2)c2c(cc3c(c2O)C(=O)c2c(O)ccc(O)c2C3=O)C1C(=O)OC` (stereo not drawn) [spartanamicin B], the MIC entry in [4] was “not active”; in [6], 0.8 µg/mL (≈ 0.966 µM); in data set [7], 0.6 µg/mL (≈ 0.725 µM); in data set [8] it was 0.8 µg/mL (≈ 0.966 µM); in data set [9], “not active”; in [10], 0.2 µg/mL (≈ 0.242 µM). Besides, the MIC in data set [11] was 1 µg/mL (≈ 1.21 µM); in data set [12], 0.2 µg/mL (≈ 0.242 µM); in data set [13], 0.8 µg/mL (≈ 0.966 µM); in data set [14], 0.4 µg/mL (≈ 0.483 µM); in [15] it was 0.8 µg/mL (≈ 0.966 µM); in data set [16], “not active”. For the same molecule, the MIC in [17] was 0.8 µg/mL (≈ 0.966 µM); in data set [18], 0.4 µg/mL (≈ 0.483 µM); in [19], 0.6 µg/mL (≈ 0.725 µM); in [21] it was 0.4 µg/mL (≈ 0.483 µM); in [22], 0.8 µg/mL (≈ 0.966 µM); in [23], 100 µg/mL (≈ 121 µM). Further, the MIC in [24] was 100 µg/mL (≈ 121 µM); in [25], 0.6 µg/mL (≈ 0.725 µM); in data set [26], 0.8 µg/mL (≈ 0.966 µM). Further, the “stability upon standing in 2N HCl” value in data set [5] is reported as “hydrolyses”. Besides, the Solubility result is reported as “Sparingly soluble” in data set [20] (in 1-butanol); “Insoluble” in data set [20] (in 2N HCl); “Soluble” in data set [20] (in N,N-dimethyl formamide (DMF)); “Soluble” in data set [20] (in acetone); “Sparingly soluble” in data set [20] (in acetonitrile); “Soluble” in data set [20] (in carbon tetrachloride). Further, the Solubility result in data set [20] (in chloroform) was “Soluble”; in data set [20] (in cyclohexane) it was “Insoluble”; in data set [20] (in dimethyl sulfoxide (DMSO)), “Soluble”; in [20] (in ethanol), “not soluble; also recorded: Sparingly soluble”; in data set [20] (in ethyl acetate), “Soluble”; in data set [20] (in glacial acetic acid), “Soluble”. In addition, the Solubility entry is given as “Insoluble” in [20] (in hexane), “not soluble; also recorded: Sparingly soluble” in data set [20] (in methanol), “Soluble” in data set [20] (in toluene) and “Insoluble” in data set [20] (in water).
